Test results as given in patent US20200064357A1, “METHODS FOR DETERMINING AND MONITORING GASTROINTESTINAL INFLAMMATION” (Protagonist Therapeutics, Inc., priority 2016, published 2020).

Tested on: Sprague-Dawley rats
Assay: Biomarkers in colon of TNBS-induced acute colitis rats (Example E1)
Assay type: in vivo, rat
Source text: The effect of treatment with peptide inhibitors of IL23R on inflammatory markers associated with IL23 signaling was examined in a rat model of acute colitis. Acute colitis was induced in Sprague-Dawley rats by a single intra-rectal instillation of 2,4,6-Trinitrobenzenesulfonic acid (TNBS) followed by efficacy analysis at day seven. Pharmacodynamic (PD) biomarkers were examined using enzyme-linked immunosorbent assay (ELISA), quantitative reverse transcription polymerase chain reaction, or immunohistochemistry analysis of colon, feces, or serum samples obtained from colitic rats treated with Peptide 993, Peptide 1185, or Peptide 980.
Acute colitis was induced by providing 7-week-old female Sprague-Dawley rats with various dosages of 64 mg/kg or 48 mg/kg of TNBS in 50% ethanol (TNBS/ethanol) administered intrarectally at Day 0. Peptide inhibitors were administered orally two or three times a day at various dosages and were provided in drinking water at various dosages, for 8 days starting approximately 24 hours (Day −1) prior TNBS inoculation.
Levels of a number of inflammatory biomarkers were examined in the colons. The distal colon tissue samples, designated for protein expression analysis, were flash frozen after collection. For protein extraction, the samples were thawed, weighed and homogenized in the extraction buffer (PBS pH 7.2 supplemented with Protease Inhibitors, 3× volume:weight). The homogenates were centrifuged at 13 krpm at 4° C. for 15 minutes, a total of two times to remove the debris. The supernatants were saved in multiple aliquots in −80° C. and subsequently used for protein expression analysis on ELISA. The total protein in each sample was quantified using BCA assay. MPO, IL-10, IL-6, IL-17A and IL-22 biomarker protein expression in the distal colon samples was analyzed using commercially available rat ELISA kits.

[1] = protein by ELISA, vs vehicle treated controls, Peptide 993 65 mg/kg/day
[2] = protein by ELISA, vs vehicle treated controls, Peptide 993 65 mg/kg/day, Peptide 980 37 mg/kg/day

For `CC(=O)NC(CCCNC(=N)N)C(=O)NC1CCSCC(C(=O)NC(Cc2ccc(OCCN)cc2)C(=O)NC(Cc2ccc3ccccc3c2)C(=O)NC2(C(=O)NC(CCC(=O)O)C(=O)NC(CC(N)=O)C(=O)NC(CC(N)=O)C(N)=O)CCOCC2)NC(=O)C(CCC(N)=O)NC(=O)C(Cc2c[nH]c3ccccc23)NC(=O)C(C(C)O)NC(=O)C(CCC(N)=O)NC1=O` (stereo not drawn) [Peptide 993, Ac-[(D)-Arg]-cyclo[[Abu]-QTWQC]-[Phe[4-(2-aminoethoxy)]]-[2-Nal]-[4-amino-4-carboxy-tetrahydropyran]-ENN-NH2], the “IL-1β gene expression level, distal colon” value (data not shown, trend similar to the protein reduction) was “but not IL-1β”, the “IL-1β level in colon” value [1] was “reduced” and the “IL-6 level in colon” value [1] was “reduced”. For the same molecule, the “IL-17A level in colon” value [1] was “reduced”, the “IL-22 level in colon” value [2] was “reduced” and the “MPO level in colon” value [2] was “reduced”.
